From patent US20220276262A1, “Methods and Products for Assessing Lysosomal System Flux” (SOUTH AUSTRALIAN HEALTH AND MEDICAL RESEARCH INSTITUTE …, priority 2019, published 2022)
Entries after “also recorded” stand apart in the source; their conditions may differ.

Tests used:
[1] = system: LC3B-II in PBMCs; assay: Autophagic flux in PBMCs by lysosomal inhibition in whole blood, LC3B western blot; format: cell-based, human
Description: Blood was collected in lithium heparin (Greiner Bio-One, vacuette tube 9 ml lithium heparin, 455084), or EDTA (Greiner Bio-One, vacuette tube 9 ml K3EDTA, 455036) blood collection tubes (6-9 ml). Unless otherwise stated, blood samples were split into two (2×3 ml) and pipetted into 10 ml conical centrifuge tubes. One of the blood samples was treated with a final concentration of 150 μM of chloroquine (CQ, chloroquine diphosphate, Sigma Aldrich, C6628) (9 μl of 50 mM for a final volume of 3 ml of blood). Blood was mixed gently by inverting both tubes 3-4 times. Both tubes (+CQ and −CQ) were incubated at 37° C. for 1 hour with rotation (10 revolutions per minute, Thermo Scientific Tube Revolver, 88881002).
After blood was incubated for 1 hour at 37° C., blood tubes were kept on ice to stop enzyme activity and vesicular trafficking. PBMCs were then isolated using standard procedures. To each tube, 3 ml of cold DPBS (Dulbecco's Phosphate-Buffered Saline, GIBCO) was added to 3 ml of blood (1:1) and samples were mixed by gently inverting tubes 3-4 times. Four ml of Lymphoprep (Stemcell Technologies, 07811) was carefully underlayed beneath the blood/DPBS mixture using a 10 mL syringe and a canula (sterile). This was repeated for both blood tubes (containing blood incubated without and with CQ). Tubes containing blood/DPBS underlayed with lymphoprep were centrifuged for 30 min at 800 g, with brake off at 4° C.
PBMCs were carefully aspirated with a 1 mL pipette and dispensed into a 10 mL conical centrifuge tube (approximately 2 ml volume containing PBMCs). PBMCs were then diluted with cold DPBS to a final volume of 5 ml. PBMCs and DPBS were mixed gently by inverting tubes 3-4 times. PBMCs were then pelleted by centrifugation at 600 g for 10 min at 4° C. (with brake). The supernatant was discarded.
PBMCs were resuspended with 1 ml of red blood cell lysis buffer (1×, BD Biosciences, 555899) and were mixed by gently pipetting. PBMCs were left on ice for 2 minutes, after which they were pelleted by centrifugation at 600 g for 5 min at 4° C. The supernatant was discarded and PBMCs were washed by resuspension in 5 ml of cold DPBS. PBMCs were pelleted again by centrifugation at 600 g for 5 min at 4° C. The supernatant was discarded and the cells were again resuspended in 1 ml of cold DPBS and this suspension was transferred to a 1.5 ml microcentrifuge tube. This tube was centrifuged at 2,000 g for 10 min at 4° C. The supernatant was discarded and the pellet containing PBMCs was frozen on dry ice and stored at −80° C. until biochemical analyses.
PBMC pellets were resuspended in a lysis buffer containing protease and phosphatase inhibitors (10 mM Tris pH 7.0, 1 mM EDTA, 0.5 mM EGTA, 1% Triton X-100, 0.1% sodium deoxycholate, 0.1% SDS, 140 mM NaCl, 2.5 mM sodium pyrophosphate, 1 mM sodium orthovanadate, 1 mM β-glycerophosphate (pH 7.4) protease inhibitor cocktail Roche (1×). Cell suspensions were then sonicated on ice 2×20 sec. Cell lysates were centrifuged at 2,000 g for 10 min at 4° C. and the supernatant collected.
Total protein was measured using a micro BCA protein assay kit [Thermo Fisher Scientific 23235]. Western blot analysis was performed using 10 μg of total protein of each of the homogenates that were electrophoresed at 130 V for 1 hour through 4-12% Bis-Tris Plus SDS-PAGE gels (Bolt™, Invitrogen, Thermofisher Scientific). The gels were transferred to a methanol-activated PVDF membrane at 35 V for 70 min. […]

[2] = system: SQSTM1/P62 in PBMCs; assay: Primary culture of PBMCs with or without chloroquine, SQSTM1/P62 western blot; format: cell-based, human; conditions: 150 μM chloroquine, one-hour, isolated PBMCs in RPMI, N=3
Description: (§1) The supernatant was discarded.
Images were analyzed using ImageJ software.
These populations were verified by flow cytometry (FIG. 5B).

[3] = system: LC3A in PBMCs; assay: Whole blood incubation, LC3A western blot in PBMCs; format: cell-based, human; conditions: chloroquine 0-200 μM in whole blood, 1 h at 37° C., four subjects
Description: (§2) Blood was mixed gently by inverting both tubes 3-4 times.
(§3) (with brake). The supernatant was discarded.
(§4) This tube was centrifuged at 2,000 g for 10 min at 4° C.
(§5) The gels were transferred to a methanol-activated PVDF membrane at 35 V for 70 min.
(§6) The membranes were incubated overnight at 4° C. with primary antibodies diluted in block solution on a tube roller.

[4] = system: P62 in PBMCs; assay: Whole blood incubation, P62 western blot in PBMCs; format: cell-based, human; conditions: chloroquine 0-200 μM in whole blood, 1 h at 37° C., four subjects
Description: as §2, §3, §4, §5, §6

[5] = system: LC3B-II in PBMCs and PMNs; conditions: 150 μM chloroquine, one-hour, isolated PBMCs and PMNs in RPMI, N=3
Description: as §1, §1, §4, §5

CO/C1=C\C(C)=C\[C@@H](C)[C@@H](O)[C@@H](C)C/C(C)=C/C=C/[C@H](OC)[C@@H]([C@@H](C)[C@@H](O)[C@H](C)[C@@]2(O)C[C@@H](O)[C@H](C)[C@@H](C(C)C)O2)OC1=O [Bafilomycin, bafilomycin A1]
LC3BII cargo in PBMCs ([1]; whole blood from four individuals, one hour at 37° C., ethanol vehicle): increased LC3BII cargo

O=C([O-])CN(CCN(CC(=O)[O-])CC(=O)O)CC(=O)[O-].[K+].[K+].[K+] [EDTA]
LC3B-II signal in no-chloroquine samples (basal state) ([1]; EDTA tubes compared with lithium-heparin tubes, three subjects): lower

CCN(CC)CCCC(C)Nc1ccnc2cc(Cl)ccc12 (stereo not drawn) [chloroquine]
P62 level after chloroquine treatment [2]: did not change | LC3BII accumulation over time ([1]; 150 μM chloroquine in whole blood, 0-120 minutes of incubation): near-linear increase in LC3BII accumulation | LC3B-II response to chloroquine titration (ΔLC3BII, measure of autophagic flux) ([1]; chloroquine 0-200 μM in whole blood, 1 h at 37° C., four subjects): robust directly proportional increase in response to increasing chloroquine concentration in whole blood up until 150 μM; also recorded: robust, directly proportional increase in response to increasing chloroquine concentration in whole blood up to 150 μM, after which a ceiling effect was observed | LC3A response to chloroquine treatment [3]: not clearly responding | P62 protein abundance [4]: increased protein abundance with chloroquine treatment was observed in three out of four subjects | LC3B-II level (LC3B-II degradation inhibited) [5]: increase in LC3B-II

lithium heparin [lithium-heparin]
autophagic flux (ΔLC3B-II) by anti-coagulant of the collection tube ([1]; lithium-heparin compared with EDTA tubes, 150 μM chloroquine one-hour at 37° C., three subjects): greater
